The text below walks through data of patent US9801960B2, “Probe for a biological specimen and labelling method and screening method using the probe” (CANON KABUSHIKI KAISHA, priority 2008, dated 2017).

For the first data set, the system named is Zebrafish juveniles. Put plainly: In vivo labelling of Zebrafish juveniles with probe for biological specimen. Set-up: key to Staining property: +++: stained; −: no stained; key to Fluorescence sensitivity: +++: strongly observed; ++: moderately observed; +: weakly observed; −: no stained. The note with it: 10 ng/mL in water, 1 hour, stereoscopic microscope. The protocol: Five juveniles of Zebrafish were put into one well of a well plate together with rearing water. After rearing water had been discharged, 1 mL of distilled water was added to the well, and a solution of a staining compound (1) in DMSO was further added thereto so as to achieve a concentration of 10 ng/mL, followed by gentle stirring (pipetting). Further, Egg Water was prepared by dissolving artificial seawater SEALIFE (manufactured by Marinetech Co., Ltd.) in distilled water at a concentration of 60 mg/L. After the whole had been left to stand for 1 hour, distilled water in the well was discharged and replaced by 1 mL of fresh Egg Water. In addition, such an operation that Egg Water was discharged and replaced by 1 mL of fresh Egg Water was repeated twice. One of the juveniles was taken out from the well onto a dish, supplemented with 100 μL of a 3% methylcellulose aqueous solution to fix the movement of the juvenile, and photographed with a stereoscopic microscope (MZ10F: manufactured by Leica Microsystems K.K.).
The same operation as that in Example 1 was performed except that the staining compound (1) used in Example 1 was changed to any one of the staining compounds described in Table 1.
The same operation as that in Example 1 was performed except that the staining compound (1) used in Example 1 was changed to any one of indocyanine green (ICG) and fluorescein.
The staining property of each of the staining compounds of Labelled Examples 1 to 78 and Labelled Comparative Examples 1 and 2 was visually evaluated (+++: stained and −: no stained).
The fluorescence intensity of each of the staining compounds of Labelled Examples 1 to 78 and Labelled Comparative Examples 1 and 2 was visually evaluated (+++: strongly observed, ++: moderately observed, +: weakly observed, and −: no stained).
For `COc1ccc2cc(N3c4ccc(/C=C5\C(=O)N(c6ccccc6)N=C5C(=O)O)cc4C4CCCC43)ccc2c1` (stereo not drawn) [Dye 14], the “Site(s) to be labelled” value is “gallbladder”.
`CSc1ccc(N2c3ccc(/C=C4/SC(=S)N(CC(=O)O)C4=O)cc3C3CCCC32)cc1` (stereo not drawn) [Dye 17]: the “Site(s) to be labelled” value is “blood vessel, liver, and gastrointestinal tract”.
For `COc1ccc2cc(N3c4ccc(/C=C5/SC(=S)N(CCC(=O)O)C5=O)cc4C4CCCC43)ccc2c1` (stereo not drawn) [Dye 20], the “Site(s) to be labelled” value is “blood vessel, liver, and gastrointestinal tract”.
Still for that read-out and setting: next, `CC1=NN(c2ccccc2)C(=O)/C1=C\c1cc(Br)c2c(c1)C1CCCC1N2c1ccc(Br)cc1` (stereo not drawn) [Dye 22]: “liver and gastrointestinal tract”; `O=C(O)C[n+]1c(/C=C/c2ccc3c(c2)C2CCCC2N3Cc2ccccc2)sc2ccccc21` (stereo not drawn) [Dye 24]: “nose”; `N#C/C(=C\c1cc(Br)c2c(c1)C1CCCC1N2Cc1cccc(Br)c1)C(=O)O` (stereo not drawn) [Dye 25]: “gastrointestinal tract”.

The data set is the same for the next values; noted with them: 10 ng/mL, 1 hour, fluorescence intensity visually evaluated.
`COc1ccc2cc(N3c4ccc(/C=C5\C(=O)N(c6ccccc6)N=C5C(=O)O)cc4C4CCCC43)ccc2c1` (stereo not drawn) [Dye 14]: the Fluorescence sensitivity entry is on record as “++”.
Still for that read-out and setting: with `CSc1ccc(N2c3ccc(/C=C4/SC(=S)N(CC(=O)O)C4=O)cc3C3CCCC32)cc1` (stereo not drawn) [Dye 17] the entry was “+++”; with `COc1ccc2cc(N3c4ccc(/C=C5/SC(=S)N(CCC(=O)O)C5=O)cc4C4CCCC43)ccc2c1` (stereo not drawn) [Dye 20], “+++”.
For `CC1=NN(c2ccccc2)C(=O)/C1=C\c1cc(Br)c2c(c1)C1CCCC1N2c1ccc(Br)cc1` (stereo not drawn) [Dye 22], the Fluorescence sensitivity result is given as “+++”.
For the molecule `O=C(O)C[n+]1c(/C=C/c2ccc3c(c2)C2CCCC2N3Cc2ccccc2)sc2ccccc21` (stereo not drawn) [Dye 24], the Fluorescence sensitivity entry is on record as “+++”.
Regarding `N#C/C(=C\c1cc(Br)c2c(c1)C1CCCC1N2Cc1cccc(Br)c1)C(=O)O` (stereo not drawn) [Dye 25], the Fluorescence sensitivity result is “++”.
`O=C1OC2(c3ccc(O)cc3Oc3cc(O)ccc32)c2ccccc21` [fluorescein, reference compound]: the Fluorescence sensitivity result is listed as “++”.

The data set is the same for the next values; noted with them: 10 ng/mL, 1 hour, visually evaluated.
Consider `COc1ccc2cc(N3c4ccc(/C=C5\C(=O)N(c6ccccc6)N=C5C(=O)O)cc4C4CCCC43)ccc2c1` (stereo not drawn) [Dye 14], for which the Staining property result is given as “+++”.
As for `CSc1ccc(N2c3ccc(/C=C4/SC(=S)N(CC(=O)O)C4=O)cc3C3CCCC32)cc1` (stereo not drawn) [Dye 17], the Staining property entry is recorded as “+++”.
As to `COc1ccc2cc(N3c4ccc(/C=C5/SC(=S)N(CCC(=O)O)C5=O)cc4C4CCCC43)ccc2c1` (stereo not drawn) [Dye 20], the Staining property entry is listed as “+++”.
For the molecule `CC1=NN(c2ccccc2)C(=O)/C1=C\c1cc(Br)c2c(c1)C1CCCC1N2c1ccc(Br)cc1` (stereo not drawn) [Dye 22], the Staining property entry is recorded as “+++”.
For `O=C(O)C[n+]1c(/C=C/c2ccc3c(c2)C2CCCC2N3Cc2ccccc2)sc2ccccc21` (stereo not drawn) [Dye 24], the Staining property entry is reported as “+++”.
For `N#C/C(=C\c1cc(Br)c2c(c1)C1CCCC1N2Cc1cccc(Br)c1)C(=O)O` (stereo not drawn) [Dye 25], the Staining property entry is “+++”.
`O=C1OC2(c3ccc(O)cc3Oc3cc(O)ccc32)c2ccccc21` [fluorescein, reference compound]: the Staining property result is listed as “+++”.

Tested on in another data set: not listed separately
The data set can be described thus: Storage stability of staining compound solution in DMSO. Format: physicochemical. The settings on record: 10 ng/mL in DMSO, closed glass container, normal temperature, 1 month; rate of change of absorbance and fluorescence intensity. The protocol: A 10 ng/mL solution of each of the staining compounds of Labelled Examples 1 to 78 and Labelled Comparative Examples 1 and 2 in DMSO was prepared, charged into a well-closed container made of glass, and left to stand still at normal temperature for 1 month. The absorbance and the fluorescence intensity at the time of the start of a storage stability test were measured at a given wavelength, and their rates of change were examined (+++: rates of change of the absorbance and the fluorescence intensity are less than 5%, and thus, the storage stability is highly excellent; ++: rates of change of the absorbance and fluorescence intensity are 5 to 15%, and thus, the storage stability is excellent; and −: rates of change of the absorbance and fluorescence intensity are more than 15%, and thus, the storage stability is poor).
Take `COc1ccc2cc(N3c4ccc(/C=C5\C(=O)N(c6ccccc6)N=C5C(=O)O)cc4C4CCCC43)ccc2c1` (stereo not drawn) [Dye 14]: the Storage stability entry was “+++ (rates of change of the absorbance and the fluorescence intensity are less than 5%, and thus, the storage stability is highly excellent)”.
Consider `CSc1ccc(N2c3ccc(/C=C4/SC(=S)N(CC(=O)O)C4=O)cc3C3CCCC32)cc1` (stereo not drawn) [Dye 17], for which the Storage stability result is “+++ (rates of change of the absorbance and the fluorescence intensity are less than 5%, and thus, the storage stability is highly excellent)”.
Turning to `COc1ccc2cc(N3c4ccc(/C=C5/SC(=S)N(CCC(=O)O)C5=O)cc4C4CCCC43)ccc2c1` (stereo not drawn) [Dye 20], the Storage stability entry was “+++ (rates of change of the absorbance and the fluorescence intensity are less than 5%, and thus, the storage stability is highly excellent)”.
Turning to `CC1=NN(c2ccccc2)C(=O)/C1=C\c1cc(Br)c2c(c1)C1CCCC1N2c1ccc(Br)cc1` (stereo not drawn) [Dye 22], the Storage stability entry is “++ (rates of change of the absorbance and fluorescence intensity are 5 to 15%, and thus, the storage stability is excellent)”.
`O=C(O)C[n+]1c(/C=C/c2ccc3c(c2)C2CCCC2N3Cc2ccccc2)sc2ccccc21` (stereo not drawn) [Dye 24]: the Storage stability entry was “+++ (rates of change of the absorbance and the fluorescence intensity are less than 5%, and thus, the storage stability is highly excellent)”.
As to `N#C/C(=C\c1cc(Br)c2c(c1)C1CCCC1N2Cc1cccc(Br)c1)C(=O)O` (stereo not drawn) [Dye 25], the Storage stability entry is “+++ (rates of change of the absorbance and the fluorescence intensity are less than 5%, and thus, the storage stability is highly excellent)”.
Regarding `O=C1OC2(c3ccc(O)cc3Oc3cc(O)ccc32)c2ccccc21` [fluorescein, reference compound], the Storage stability result was “++ (rates of change of the absorbance and fluorescence intensity are 5 to 15%, and thus, the storage stability is excellent)”.

Tested on in the next data set: not listed separately
The data set can be described thus: Excitation and fluorescence emission wavelength measurement. Format: physicochemical. Set-up: Stokes shift (λem − λex): unit not given here. The note with it: aqueous solution: 10 mg/mL solution in DMSO diluted 500-fold with purified water. The procedure: It should be noted that the excitation wavelength and the fluorescence emission wavelength of the staining compound were determined by measuring an aqueous solution, which had been obtained by diluting 500-fold a 10 mg/mL solution of the staining compound in DMSO with purified water, with a fluorescence spectrophotometer FL 4500 manufactured by Hitachi High-Technologies Corporation.
For `COc1ccc2cc(N3c4ccc(/C=C5\C(=O)N(c6ccccc6)N=C5C(=O)O)cc4C4CCCC43)ccc2c1` (stereo not drawn) [Dye 14], the Excitation wavelength λex turned out to be 610 nm, the Fluorescence emission wavelength λem stood at 675 nm and the “Stokes shift (λem − λex)” value is 65.
As to `CSc1ccc(N2c3ccc(/C=C4/SC(=S)N(CC(=O)O)C4=O)cc3C3CCCC32)cc1` (stereo not drawn) [Dye 17], the Excitation wavelength λex stood at 527 nm, the Fluorescence emission wavelength λem came out at 636 nm and the “Stokes shift (λem − λex)” value was 109.
For `COc1ccc2cc(N3c4ccc(/C=C5/SC(=S)N(CCC(=O)O)C5=O)cc4C4CCCC43)ccc2c1` (stereo not drawn) [Dye 20], the Excitation wavelength λex worked out at 533 nm, the Fluorescence emission wavelength λem turned out to be 661 nm and the “Stokes shift (λem − λex)” value was 128.
Consider `CC1=NN(c2ccccc2)C(=O)/C1=C\c1cc(Br)c2c(c1)C1CCCC1N2c1ccc(Br)cc1` (stereo not drawn) [Dye 22], for which the Excitation wavelength λex stood at 570 nm, the Fluorescence emission wavelength λem is 598 nm and the “Stokes shift (λem − λex)” value amounted to 28.
With `O=C(O)C[n+]1c(/C=C/c2ccc3c(c2)C2CCCC2N3Cc2ccccc2)sc2ccccc21` (stereo not drawn) [Dye 24], the Excitation wavelength λex worked out at 566 nm, the Fluorescence emission wavelength λem is 611 nm and the “Stokes shift (λem − λex)” value worked out at 45.
For `N#C/C(=C\c1cc(Br)c2c(c1)C1CCCC1N2Cc1cccc(Br)c1)C(=O)O` (stereo not drawn) [Dye 25], the Excitation wavelength λex amounted to 394 nm, the Fluorescence emission wavelength λem was found to be 554 nm and the “Stokes shift (λem − λex)” value is 160.
